# Data: patent US20040102633A1, “Novel compounds” (priority 2000, published 2004)
# Where a name gives a salt, the structure may show the parent alone.
row,Structure (SMILES),melting point
1,"CCOC(=O)COc1ccc2c(C(=O)N[C@@H](CC)c3ccccc3)c(CN3CCC(N4CCCCC4)CC3)c(-c3ccccc3)nc2c1 [Example 16, [3-[1,4′]Bipiperidinyl-1′-ylmethyl-2-phenyl-4-((S)-1-phenyl-propylcarbamoyl)-quinolin-7-yloxy]-acetic Acid Ethyl Ester]",101 to 104 °C
2,"CC[C@H](NC(=O)c1c(CN2CCC(N3CCCCC3)CC2)c(-c2ccccc2)nc2cc(OCC(N)=O)ccc12)c1ccccc1 (as salt: hydrochloride) [Example 20, 3-[1,4′]Bipiperidinyl-1′-ylmethyl-7-carbamoylmethoxy-2-phenyl-quinoline-4-carboxylic Acid ((S)-1-phenyl-propyl)-amide Dihydrochloride]",218 to 220 °C
3,"C[C@H](NC(=O)c1c(CN2CCC(N)CC2)c(-c2ccccc2)nc2ccccc12)c1ccccc1 [Example 7, 3-(4-Amino-piperidin-1-ylmethyl)-2-phenyl-quinoline-4-carboxylic Acid ((S)-1-phenyl-ethyl)-amide]",118 to 119 °C
4,"C[C@H](NC(=O)c1c(CN2CCC(N3CCCCC3)CC2)c(-c2ccccc2)nc2ccc(F)cc12)C1CCCCC1 [Example 28, 3-[1,4′]Bipiperidinyl-1′-ylmethyl-6-fluoro-2-phenyl-quinoline-4-carboxylic Acid ((S)-1-cyclohexyl-ethyl)-amide]",174 to 175 °C
5,"C[C@H](NC(=O)c1c(CN2CCC(N3CCCCC3)CC2)c(-c2ccccc2)nc2cc(Cl)ccc12)C1CCCCC1 [Example 24, 3-[1,4′]Bipiperidinyl-1′-ylmethyl-7-chloro-2-phenyl-quinoline-4-carboxylic acid ((S)-1-cyclohexyl-ethyl)-amide]",152 to 154 °C
6,"C[C@H](NC(=O)c1c(CN2CCC(N3CCCC(C(=O)O)C3)CC2)c(-c2ccccc2)nc2ccccc12)C1CCCCC1 (stereo partly drawn) [Example 14, 1′-[4-((S)-1-Cyclohexyl-ethylcarbamoyl)-2-phenyl-quinolin-3-ylmethyl]-[1,4′]bipiperidinyl-3-carboxylic Acid]",160 to 165 °C
7,"CCOC(=O)C1CCCN(C2CCN(Cc3c(-c4ccccc4)nc4ccccc4c3C(=O)N[C@@H](C)C3CCCCC3)CC2)C1 (stereo partly drawn) [Example 13, 1′-[4-((S)-1-Cyclohexyl-ethylcarbamoyl)-2-phenyl-quinolin-3-ylmethyl]-[1,4′]bipiperidinyl-3-carboxylic Acid Ethyl Ester]",104 to 105 °C
8,"C[C@H](NC(=O)c1c(CN2CCC(N3CCCCC3)CC2)c(-c2ccccc2)nc2cc(O)ccc12)c1ccccc1 [Example 18, 3-[1,4′]Bipiperidinyl-1′-ylmethyl-7-hydroxy-2-phenyl-quin line-4-carboxylic Acid ((S)-1-phenyl-ethyl)-amide]",99.6 to 99.7 °C
9,"CC[C@H](NC(=O)c1c(CN2CCC(N3CCCCC3)CC2)c(-c2ccccc2)nc2cc(OCCO)ccc12)c1ccccc1 [Example 19, 3-[1,4′]Bipiperidinyl-1′-ylmethyl-7-(2-hydroxy-ethoxy)-2-phenyl-quinoline-4-carboxylic acid ((S)-1-phenyl-propyl)-amide]",118 to 122 °C
10,"CC[C@H](NC(=O)c1c(CN2CCC(N3CCCCC3)CC2)c(-c2ccccc2)nc2cc(OCC(=O)O)ccc12)c1ccccc1 (as salt: hydrochloride) [Example 17, [3-[1,4′]Bipiperidinyl-1′-ylmethyl-2-phenyl-4((S)-1-phenyl-propylcarbamoyl)-quinolin-7-yloxy]-acetic Acid Dihydrochloride]",196 °C (dec.)
11,"C[C@H](NC(=O)c1c(CN2CCC(N3CCCCC3=O)CC2)c(-c2ccccc2)nc2ccccc12)c1ccccc1 [Example 11, 3-(2-Oxo-[1,4′]bipiperidinyl-1′-ylmethyl)-2-phenyl-quinoline-4-carboxylic Acid ((S)-1-phenyl-ethyl)-amide]",124 to 125 °C

# Other lines, results leading:
row,melting point,Structure (SMILES)
1,113 °C,"C[C@H](NC(=O)c1c(CN2CCC(N3CCCCC3)CC2)c(-c2ccccc2)nc2c(F)cccc12)C1CCCCC1 [Example 26, 3-[1,4′]Bipiperidinyl-1′-ylmethyl-8-fluoro-2-phenyl-quinoline-4-carboxylic Acid ((S)-1-cyclohexyl-ethyl)-amide]"
2,138 to 140 °C,"C[C@H](NC(=O)c1c(CN2CCC(N3CCCCC3)CC2)c(-c2ccc(C(F)(F)F)cc2)nc2ccccc12)C1CCCCC1 [Example 30, 3-[1,4′]Bipiperidinyl-1′-ylmethyl-2-(4-trifluoromethyl-phenyl) -quinoline-4-carboxylic Acid ((S)-1-cyclohexyl-ethyl)-amide]"
3,140 to 145 °C,"C[C@H](NC(=O)c1c(CN2CCC(N)CC2)c(-c2ccccc2)nc2ccccc12)C1CCCCC1 [Example 6, 3-(4-Amino-piperidin-1-ylmethyl)-2-phenyl-quinoline-4-carboxylic Acid ((S)-1-cyclohexyl-ethyl)-amide]"
4,120 to 125 °C,"C[C@H](NC(=O)c1c(CN2CCC(N3CCCC3=O)CC2)c(-c2ccccc2)nc2ccccc12)c1ccccc1 [Example 12, 3-[4-(2-Oxo-pyrrolidin-1-yl)-piperidin-1-ylmethyl]-2-phenyl-quinoline-4-carboxylic Acid ((S)-1-phenyl-ethyl)-amide]"
5,113 to 116 °C,"COc1ccc2c(C(=O)N[C@H](c3ccccc3)C(C)C)c(CN3CCC(N4CCCCC4)CC3)c(-c3ccccc3)nc2c1 [Example 22, 3-[1,4′]Bipiperidinyl-1′-ylmethyl-7-methoxy-2-phenyl-quinoline-4-carboxylic Acid ((S)-2-methyl-1-phenyl-propyl)-amide]"
6,161 to 163 °C,"C[C@H](NC(=O)c1c(CN2CCC(N3CCCCC3)CC2)c(-c2ccccc2)nc2cc(F)ccc12)C1CCCCC1 [Example 25, 3-[1,4′]Bipiperidinyl-1′-ylmethyl-7-fluoro-2-phenyl-quinoline-4-carboxylic Acid ((S)-1-cyclohexyl-ethyl)-amide]"
7,177.9 to 178 °C,"C[C@H](NC(=O)c1c(CN2CCC(N3CCCCC3)CC2)c(-c2ccccc2)nc2cc(O)ccc12)C1CCCCC1 [Example 15, 3-[1,4′]Bipiperidinyl-1′-ylmethyl-7-hydroxy-2-phenyl-quinoline-4-carboxylic Acid ((S)-1-cyclohexyl-ethyl)-amide]"
8,165 to 166 °C,"C[C@H](NC(=O)c1c(CN2CCC(N3CCCCC3)CC2)c(-c2cccs2)nc2ccccc12)C1CCCCC1 [Example 27, 3-[1,4′]Bipiperidinyl-1-ylmethyl-2-thiophen-2-yl-quinoline-4-carboxylic Acid ((S)-1-cyclohexyl-ethyl)-amide]"
9,151 to 153 °C,"C[C@H](NC(=O)c1c(CN2CCC(N3CCCCC3)CC2)c(-c2ccc(F)cc2)nc2ccccc12)C1CCCCC1 [Example 29, 3-[1,4′]Bipiperidinyl-1′-ylmethyl-2-(4-fluoro-phenyl)-quinoline-4-carboxylic Acid ((S)-1-cyclohexyl-ethyl)-amide]"
10,200 to 204 °C (dec.),"CC(C)[C@H](NC(=O)c1c(CN2CCC(N3CCCCC3)CC2)c(-c2ccccc2)nc2cc(O)ccc12)c1ccccc1 [Example 21, 3-[1,4′]Bipiperidinyl-1′-ylmethyl-7-hydroxy-2-phenyl-quinoline-4-carboxylic Acid ((S)-2-methyl-1-phenyl-propyl)-amide]"
